Measurements taken from paper PMC12136037, “Type II kinase inhibitors that target Parkinson’s disease–associated LRRK2” (Science Advances, 2025).

What was measured:
Test in all cases: DSF 100 kinase selectivity screen;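 also: compound tested at 20 µM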
Assay type in all cases: binding
[1] = biological target: T1, ~100 representative kinases (Homo sapiens, UniProt O14733); conditions: protein MAP2K7; average of three replicates
T1 construct: Recombinant protein kinase domains with a concentration of 2 μM
T1 sequence (O14733 1-419): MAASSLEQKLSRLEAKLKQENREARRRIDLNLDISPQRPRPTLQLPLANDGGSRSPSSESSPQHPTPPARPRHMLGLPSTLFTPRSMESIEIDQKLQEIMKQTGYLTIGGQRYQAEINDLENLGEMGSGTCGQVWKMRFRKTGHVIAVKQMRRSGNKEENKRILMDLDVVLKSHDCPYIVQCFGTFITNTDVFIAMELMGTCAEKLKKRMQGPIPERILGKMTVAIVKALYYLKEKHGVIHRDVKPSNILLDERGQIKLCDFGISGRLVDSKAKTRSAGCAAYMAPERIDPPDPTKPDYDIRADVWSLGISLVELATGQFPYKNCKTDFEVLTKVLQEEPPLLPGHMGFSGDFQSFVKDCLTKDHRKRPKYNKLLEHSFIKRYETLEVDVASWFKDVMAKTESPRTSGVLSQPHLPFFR
Procedure, shortened: (§1)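 Each kinase domain, at 2 μM, is mixed with 20 μM test compound and SYPRO Orange in Hepes (20 mM, pH 7.5) with 500 mM NaCl. Temperature is then raised at 3°C/min and fluorescence-monitored unfolding yields the melting temperature change, ΔTm in degrees Celsius.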

[2] = biological target: T2, ~100 representative kinases (Homo sapiens, UniProt O75582); conditions: Protein RPS6KA5; DSF; average of three replicates
T2 construct: Recombinant protein kinase domains with a concentration of 2 μM
T2 sequence (O75582 whole entry, the tested form may be a part): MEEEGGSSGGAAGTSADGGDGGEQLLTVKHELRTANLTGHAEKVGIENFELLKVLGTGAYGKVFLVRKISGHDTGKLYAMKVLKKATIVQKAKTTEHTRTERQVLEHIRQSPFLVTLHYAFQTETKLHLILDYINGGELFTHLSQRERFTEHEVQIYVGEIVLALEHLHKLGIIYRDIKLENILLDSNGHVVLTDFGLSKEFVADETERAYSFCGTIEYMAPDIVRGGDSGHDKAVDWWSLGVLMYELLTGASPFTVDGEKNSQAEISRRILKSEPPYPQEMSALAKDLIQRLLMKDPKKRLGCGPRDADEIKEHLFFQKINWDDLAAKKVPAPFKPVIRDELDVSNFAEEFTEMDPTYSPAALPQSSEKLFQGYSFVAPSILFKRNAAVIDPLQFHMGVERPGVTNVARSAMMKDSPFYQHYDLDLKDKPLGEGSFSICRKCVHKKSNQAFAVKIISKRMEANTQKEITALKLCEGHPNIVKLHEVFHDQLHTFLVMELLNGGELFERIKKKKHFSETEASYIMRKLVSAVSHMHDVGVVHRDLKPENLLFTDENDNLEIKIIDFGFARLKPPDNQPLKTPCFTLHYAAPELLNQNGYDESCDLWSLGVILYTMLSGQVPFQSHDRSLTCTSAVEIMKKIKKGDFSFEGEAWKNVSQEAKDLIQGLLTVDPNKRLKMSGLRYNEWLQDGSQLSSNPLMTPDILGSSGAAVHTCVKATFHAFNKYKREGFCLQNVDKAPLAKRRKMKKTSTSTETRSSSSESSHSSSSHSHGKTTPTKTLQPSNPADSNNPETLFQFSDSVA
Procedure, shortened: as §1

[3] = biological target: T3, ~100 representative kinases (Homo sapiens, UniProt P15735); conditions: protein PHKG2; average of three replicates
T3 construct: Recombinant protein kinase domains with a concentration of 2 μM
T3 sequence (P15735 1-406): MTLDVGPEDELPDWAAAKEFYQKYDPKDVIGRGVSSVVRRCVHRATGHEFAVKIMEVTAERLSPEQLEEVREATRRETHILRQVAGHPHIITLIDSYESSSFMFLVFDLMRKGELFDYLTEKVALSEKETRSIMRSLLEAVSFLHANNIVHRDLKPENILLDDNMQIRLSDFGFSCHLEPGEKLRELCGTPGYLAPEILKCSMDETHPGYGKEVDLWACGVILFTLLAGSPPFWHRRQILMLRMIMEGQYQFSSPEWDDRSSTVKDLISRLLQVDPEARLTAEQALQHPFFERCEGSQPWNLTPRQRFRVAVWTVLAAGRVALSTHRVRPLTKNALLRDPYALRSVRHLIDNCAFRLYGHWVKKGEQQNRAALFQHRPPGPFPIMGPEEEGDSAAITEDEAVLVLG
Procedure, shortened: as §1

[4] = biological target: T4, ~100 representative kinases (Homo sapiens, UniProt P29317); conditions: Protein EPHA2; average of three replicates
T4 construct: Recombinant protein kinase domains with a concentration of 2 μM
T4 sequence (P29317 24-976): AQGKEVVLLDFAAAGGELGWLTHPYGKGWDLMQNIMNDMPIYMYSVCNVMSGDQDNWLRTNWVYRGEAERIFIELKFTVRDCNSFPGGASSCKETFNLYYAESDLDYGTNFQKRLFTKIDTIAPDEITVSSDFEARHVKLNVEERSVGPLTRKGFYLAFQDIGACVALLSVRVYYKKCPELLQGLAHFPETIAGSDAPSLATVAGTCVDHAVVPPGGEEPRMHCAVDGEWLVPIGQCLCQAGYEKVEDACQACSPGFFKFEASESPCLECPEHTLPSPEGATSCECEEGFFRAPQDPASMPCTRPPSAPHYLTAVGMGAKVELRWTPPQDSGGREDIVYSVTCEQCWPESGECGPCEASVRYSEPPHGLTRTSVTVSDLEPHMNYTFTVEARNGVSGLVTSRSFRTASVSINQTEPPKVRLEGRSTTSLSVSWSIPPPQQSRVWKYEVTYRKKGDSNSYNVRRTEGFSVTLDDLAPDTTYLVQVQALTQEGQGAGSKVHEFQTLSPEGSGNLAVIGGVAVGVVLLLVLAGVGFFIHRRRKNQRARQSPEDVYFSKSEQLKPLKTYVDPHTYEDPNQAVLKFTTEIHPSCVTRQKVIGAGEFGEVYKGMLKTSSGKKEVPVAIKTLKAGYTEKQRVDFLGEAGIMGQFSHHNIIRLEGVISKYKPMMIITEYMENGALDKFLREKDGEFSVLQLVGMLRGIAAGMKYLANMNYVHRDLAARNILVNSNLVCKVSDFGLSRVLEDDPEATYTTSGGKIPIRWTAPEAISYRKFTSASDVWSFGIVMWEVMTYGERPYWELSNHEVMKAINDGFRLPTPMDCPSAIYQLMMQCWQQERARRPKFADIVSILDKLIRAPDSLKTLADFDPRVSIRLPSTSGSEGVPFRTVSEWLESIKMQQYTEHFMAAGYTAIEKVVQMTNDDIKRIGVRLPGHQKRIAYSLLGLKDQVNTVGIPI
Procedure, shortened: as §1

[5] = biological target: T5, ~100 representative kinases (Homo sapiens, UniProt P45983); conditions: protein MAPK8; average of three replicates
T5 construct: Recombinant protein kinase domains with a concentration of 2 μM
T5 sequence (P45983 whole entry, the tested form may be a part): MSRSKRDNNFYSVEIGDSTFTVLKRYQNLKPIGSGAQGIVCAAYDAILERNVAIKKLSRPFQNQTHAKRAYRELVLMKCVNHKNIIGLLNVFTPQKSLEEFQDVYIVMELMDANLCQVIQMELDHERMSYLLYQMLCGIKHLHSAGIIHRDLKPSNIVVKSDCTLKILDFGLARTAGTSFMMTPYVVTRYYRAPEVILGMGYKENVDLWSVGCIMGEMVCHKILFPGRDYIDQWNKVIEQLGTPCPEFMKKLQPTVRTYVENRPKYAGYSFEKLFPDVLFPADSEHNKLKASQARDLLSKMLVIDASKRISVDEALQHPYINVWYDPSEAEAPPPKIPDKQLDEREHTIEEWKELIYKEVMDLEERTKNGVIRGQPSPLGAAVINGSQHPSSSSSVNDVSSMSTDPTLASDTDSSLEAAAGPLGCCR
Procedure, shortened: as §1

[6] = biological target: T6, ~100 representative kinases (Homo sapiens, UniProt P52564); conditions: protein MAP2K6; average of three replicates
T6 construct: Recombinant protein kinase domains with a concentration of 2 μM
T6 sequence (P52564 1-334): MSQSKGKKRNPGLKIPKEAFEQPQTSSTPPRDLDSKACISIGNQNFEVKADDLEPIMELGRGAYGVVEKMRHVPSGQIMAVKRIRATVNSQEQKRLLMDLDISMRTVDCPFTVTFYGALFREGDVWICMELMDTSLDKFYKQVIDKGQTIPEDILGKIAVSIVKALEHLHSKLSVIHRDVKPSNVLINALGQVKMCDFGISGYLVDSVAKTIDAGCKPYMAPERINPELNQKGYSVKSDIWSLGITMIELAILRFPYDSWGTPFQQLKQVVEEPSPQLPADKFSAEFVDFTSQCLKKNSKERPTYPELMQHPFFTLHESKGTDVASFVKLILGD
Procedure, shortened: as §1

[7] = biological target: T7, ~100 representative kinases (Homo sapiens, UniProt P53779); conditions: protein MAPK10; average of three replicates
T7 construct: Recombinant protein kinase domains with a concentration of 2 μM
T7 sequence (P53779 whole entry, the tested form may be a part): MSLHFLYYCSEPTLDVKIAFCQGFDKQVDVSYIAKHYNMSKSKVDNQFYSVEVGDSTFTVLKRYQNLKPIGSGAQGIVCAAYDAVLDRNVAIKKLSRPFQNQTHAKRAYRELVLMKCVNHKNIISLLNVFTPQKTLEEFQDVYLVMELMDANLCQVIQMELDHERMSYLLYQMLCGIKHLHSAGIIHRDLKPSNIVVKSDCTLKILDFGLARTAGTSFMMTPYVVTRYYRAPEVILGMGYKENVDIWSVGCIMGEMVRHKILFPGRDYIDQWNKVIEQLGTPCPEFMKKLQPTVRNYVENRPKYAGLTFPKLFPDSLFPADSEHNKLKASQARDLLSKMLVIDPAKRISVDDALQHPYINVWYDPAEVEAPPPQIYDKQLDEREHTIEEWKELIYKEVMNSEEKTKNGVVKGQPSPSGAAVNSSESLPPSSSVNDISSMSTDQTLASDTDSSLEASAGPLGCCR
Procedure, shortened: as §1

[8] = biological target: T8, ~100 representative kinases (Homo sapiens, UniProt Q96RR4); conditions: Protein CAMKK2; average of three replicates
T8 construct: Recombinant protein kinase domains with a concentration of 2 μM
Procedure, shortened: as §1

[9] = biological target: T9, ~100 representative kinases (Homo sapiens, UniProt Q9NSY1); conditions: Protein BMP2K; average of three replicates
T9 construct: Recombinant protein kinase domains with a concentration of 2 μM
T9 sequence (Q9NSY1 whole entry, the tested form may be a part): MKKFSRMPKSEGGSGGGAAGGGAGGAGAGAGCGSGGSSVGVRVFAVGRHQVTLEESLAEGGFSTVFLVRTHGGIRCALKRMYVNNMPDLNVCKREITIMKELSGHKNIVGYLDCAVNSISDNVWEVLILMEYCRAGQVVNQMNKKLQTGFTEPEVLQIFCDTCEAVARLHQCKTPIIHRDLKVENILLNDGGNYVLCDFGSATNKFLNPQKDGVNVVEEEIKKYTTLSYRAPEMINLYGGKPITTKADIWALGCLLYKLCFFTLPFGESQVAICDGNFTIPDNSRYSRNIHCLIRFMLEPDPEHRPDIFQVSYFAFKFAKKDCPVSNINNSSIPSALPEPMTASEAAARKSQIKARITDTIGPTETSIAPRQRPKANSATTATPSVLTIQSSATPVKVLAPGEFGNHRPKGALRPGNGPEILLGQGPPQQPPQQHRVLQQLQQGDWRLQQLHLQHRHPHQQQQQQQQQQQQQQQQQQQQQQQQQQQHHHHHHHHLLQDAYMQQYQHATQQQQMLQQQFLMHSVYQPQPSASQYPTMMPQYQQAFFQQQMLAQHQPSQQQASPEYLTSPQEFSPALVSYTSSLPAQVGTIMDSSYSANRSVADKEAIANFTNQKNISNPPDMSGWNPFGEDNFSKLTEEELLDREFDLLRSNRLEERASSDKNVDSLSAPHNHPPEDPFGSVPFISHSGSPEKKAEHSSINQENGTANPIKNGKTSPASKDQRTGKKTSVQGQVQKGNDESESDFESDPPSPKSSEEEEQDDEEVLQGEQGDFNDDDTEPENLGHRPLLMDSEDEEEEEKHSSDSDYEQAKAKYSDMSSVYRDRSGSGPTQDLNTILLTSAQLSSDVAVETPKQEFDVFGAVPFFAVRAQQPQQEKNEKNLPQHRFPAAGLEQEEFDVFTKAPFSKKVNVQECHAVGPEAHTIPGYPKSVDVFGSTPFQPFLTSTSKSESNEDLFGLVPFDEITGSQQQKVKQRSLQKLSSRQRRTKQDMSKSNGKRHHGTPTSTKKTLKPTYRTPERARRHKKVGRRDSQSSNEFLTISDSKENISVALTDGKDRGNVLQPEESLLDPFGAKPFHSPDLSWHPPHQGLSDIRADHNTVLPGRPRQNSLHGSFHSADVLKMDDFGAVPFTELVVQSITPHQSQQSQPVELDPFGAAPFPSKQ
Procedure, shortened: as §1

[10] = biological target: T10, ~100 representative kinases (Homo sapiens, UniProt Q9P289); conditions: protein MST4; average of three replicates
T10 construct: Recombinant protein kinase domains with a concentration of 2 μM
T10 sequence (Q9P289 whole entry, the tested form may be a part): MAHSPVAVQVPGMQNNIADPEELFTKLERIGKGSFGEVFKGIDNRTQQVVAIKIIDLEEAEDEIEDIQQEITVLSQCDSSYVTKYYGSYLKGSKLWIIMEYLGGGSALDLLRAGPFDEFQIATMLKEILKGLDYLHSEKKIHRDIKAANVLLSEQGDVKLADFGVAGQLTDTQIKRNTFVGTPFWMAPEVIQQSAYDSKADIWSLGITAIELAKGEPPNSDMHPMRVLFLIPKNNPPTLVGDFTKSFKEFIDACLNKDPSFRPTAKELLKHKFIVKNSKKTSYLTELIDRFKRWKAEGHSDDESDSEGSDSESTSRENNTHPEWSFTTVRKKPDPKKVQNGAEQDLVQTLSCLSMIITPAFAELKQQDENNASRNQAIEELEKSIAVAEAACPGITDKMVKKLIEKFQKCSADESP
Procedure, shortened: as §1

[11] = biological target: T11, ~100 representative kinases (Homo sapiens, UniProt Q9Y2H1); conditions: Protein STK38L; DSF; average of three replicates
T11 construct: Recombinant protein kinase domains with a concentration of 2 μM
T11 sequence (Q9Y2H1 whole entry, the tested form may be a part): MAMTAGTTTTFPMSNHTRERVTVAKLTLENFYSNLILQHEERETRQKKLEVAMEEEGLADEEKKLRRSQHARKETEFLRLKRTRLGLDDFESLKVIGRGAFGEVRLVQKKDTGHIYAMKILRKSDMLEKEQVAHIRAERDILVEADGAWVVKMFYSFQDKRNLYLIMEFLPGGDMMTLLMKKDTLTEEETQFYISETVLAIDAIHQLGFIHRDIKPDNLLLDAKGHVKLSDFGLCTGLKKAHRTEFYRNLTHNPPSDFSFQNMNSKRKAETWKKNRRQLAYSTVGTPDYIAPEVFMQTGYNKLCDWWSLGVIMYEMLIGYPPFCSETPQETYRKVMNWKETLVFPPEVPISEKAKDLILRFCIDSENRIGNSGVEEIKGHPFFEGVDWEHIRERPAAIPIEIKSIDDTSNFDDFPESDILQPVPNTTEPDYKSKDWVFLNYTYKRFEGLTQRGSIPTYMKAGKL
Procedure, shortened: as §1

[12] = biological target: T12, ~100 representative kinases (Homo sapiens, UniProt Q9Y6E0); conditions: protein MST3; average of three replicates
T12 construct: Recombinant protein kinase domains with a concentration of 2 μM
Procedure, shortened: as §1

| SMILES | dTm [1] [K] | dTm [2] [K] | dTm [3] [K] | dTm [4] [K] | dTm [5] [K] | dTm [6] [K] | dTm [7] [K] | dTm [8] [K] | dTm [9] [K] | dTm [10] [K] | dTm [11] [K] | dTm [12] [K] |
| --- | --- | --- | --- | --- | --- | --- | --- | --- | --- | --- | --- | --- |
| Cc1ccc(C(=O)Nc2ccc(CN3CCN(C)CC3)c(C(F)(F)F)c2)cc1C#Cc1c[nH]c2ncnc(N3CCOCC3)c12 [Compound 1] | 4.67 | 1.58 | -0.17 | 3.44 | 2.18 | 3.80 | 4.55 | 10.65 | 7.81 | 4.54 | 2.95 | 3.57 |
| O=C(Nc1ccc(F)cc1)C1(C(=O)Nc2cccc(-c3c[nH]c4ncnc(N5CCOCC5)c34)c2)CC1 [Compound 2] | 4.21 | 4.64 | 2.27 | 6.37 | 1.17 | 2.20 | -0.56 | 7.29 | 6.37 | 5.41 | -0.20 | 7.19 |
| O=C(Nc1cccc(-c2c[nH]c3ncnc(N4CCOCC4)c23)c1)c1cccn(-c2ccc(F)cc2)c1=O [Compound 4] | 5.76 | -0.28 | 0.20 | 6.09 | 3.47 | 2.38 | 7.48 | 8.67 | 3.26 | 1.45 | -0.37 | 3.28 |
| Cc1cc(NC(=O)C2(C(=O)Nc3ccc(F)cc3)CC2)cc(-c2c[nH]c3ncnc(N4CCOCC4)c23)c1 [Compound 6] | 1.34 | 3.89 | 0.93 | 3.21 | 2.19 | 1.56 | 2.20 | 4.32 | 5.63 | 3.15 | 0.00 | -0.29 |
| O=C(Nc1cccc(-c2c[nH]c3ncnc(N4CCOCC4)c23)c1)C1(C(=O)Nc2cccc3c2CCC3)CC1 [Compound 11] | 4.41 | 0.69 | 0.68 | 1.56 | 2.36 | 2.82 | 5.69 | 5.02 | 8.56 | 0.22 | 0.00 | -2.04 |
| O=C(Nc1ccccc1)C1(C(=O)Nc2cccc(-c3c[nH]c4ncnc(N5CCOCC5)c34)c2)CC1 [Compound 12] | 4.30 | 6.52 | 1.25 | 5.20 | 1.81 | 2.08 | 2.45 | 5.09 | 7.72 | 3.77 | 0.29 | 3.58 |
| O=C(Nc1ccc(Cl)cc1)C1(C(=O)Nc2cccc(-c3c[nH]c4ncnc(N5CCOCC5)c34)c2)CC1 [Compound 13] | 4.62 | 5.83 | 3.23 | 8.00 | 3.26 | 2.65 | 3.61 | 7.83 | 6.46 | 5.13 | 0.49 | 4.95 |
| Cc1ccc(-n2nc(C(C)(C)C)cc2NC(=O)Nc2cccc(-c3c[nH]c4ncnc(N5CCOCC5)c34)c2)cc1 [Compound 29] | 4.70 | 11.96 | 2.17 | 10.91 | 4.13 | 2.48 | 3.60 | – | 7.54 | 3.56 | -0.41 | 6.78 |
| Cc1ccc(-n2nc(C(C)(C)C)cc2NC(=O)Nc2cccc(-c3c[nH]c4nc(Cl)nc(N5CCOCC5)c34)c2)cc1 [Compound 30] | 2.39 | 7.61 | -1.15 | 3.08 | 1.42 | 0.45 | -0.06 | – | 1.64 | -1.63 | -1.01 | 0.96 |
| CC(=O)N1CCN(c2nc(Cl)nc3[nH]cc(-c4cccc(NC(=O)Nc5cc(C(C)(C)C)nn5-c5ccc(C)cc5)c4)c23)CC1 [Compound 31] | 2.84 | 8.01 | -0.72 | 4.11 | 0.84 | 0.27 | 0.82 | – | 1.28 | -1.15 | -0.73 | 3.03 |
| COc1cc(C(=O)N2CCOCC2)c(F)cc1Nc1nc(N(C)C)c2c(Cl)c[nH]c2n1 [Compound 36] | 2.56 | 2.79 | 7.95 | -0.10 | 5.54 | 9.56 | 5.50 | – | 1.71 | -3.37 | -1.36 | -3.75 |
| COc1cc(S(C)(=O)=O)ccc1Nc1nc(N(C)C)c2c(Cl)c[nH]c2n1 [Compound 37] | -0.81 | 1.80 | 3.65 | -0.56 | 3.54 | 5.52 | 2.71 | – | 0.08 | -1.65 | -1.21 | -2.45 |
| COc1cc2c(Oc3ccc(NC(=O)C4(C(=O)Nc5ccc(F)cc5)CC4)cc3F)ccnc2cc1OCCCN1CCOCC1 [Foretinib, reference compound] | – | 0.57 | 1.61 | – | 2.68 | 2.25 | 1.66 | 10.75 | 1.65 | 3.65 | 0.47 | 4.06 |
| Cc1ccc(C(=O)Nc2ccc(CN3CCN(C)CC3)c(C(F)(F)F)c2)cc1C#Cc1cnc2cccnn12 [Ponatinib, reference compound] | – | – | – | 16.48 | – | – | – | – | – | – | – | – |
| CNC(=O)c1cc(Oc2ccc(NC(=O)Nc3cc(C(C)(C)C)nn3-c3ccc4ncccc4c3)c(F)c2)ccn1 [Rebastinib, reference compound] | 2.63 | – | – | 10.76 | 1.99 | 0.26 | 3.02 | 8.93 | 0.72 | 5.29 | – | – |
| CN[C@@H]1C[C@H]2O[C@@](C)([C@@H]1OC)n1c3ccccc3c3c4c(c5c6ccccc6n2c5c31)C(=O)NC4 [Staurosporine] | 7.05 | 13.79 | – | – | – | 12.80 | – | 24.44 | 18.68 | – | – | – |
